Assay results: EP4700095A1, “INK COMPOSITION FOR INK-JET PRINTING” (Sakata INX Corporation, priority 2023, dated 2024)

Test: SP value (solubility parameter) calculated by formula 1
Conditions: 25°C (298 K), formula {(ΔH - RT)/(M/D)}^1/2

| SMILES | SP value |
| --- | --- |
| CC(O)CO (stereo not drawn) [Propylene glycol, 1,2-propanediol] | 12.6 (cal/cm^3)^1/2 |
| OCC(O)CO [Glycerin, glycerin] | 14.9 (cal/cm^3)^1/2 |
| CC(O)COC(C)COC(C)CO (stereo not drawn) [Tripropylene glycol] | 11.3 (cal/cm^3)^1/2 |
